# According to patent US12544395B2, “Combination compositions comprising a beta-lactamase inhibitor and uses thereof” (priority 2018, dated 2026):
# Values joined by “and” are separate entries in the source; they are usually repeats but may differ in a detail not shown here. Equal values may be shown once.
# Columns and labels:
# [1] = tested on: OXA-48-expressing Enterobacteriaceae (n = 39); assay: Broth microdilution MIC, ceftibuten/Compound 2 vs IV comparators
# [2] = tested on: ESBL-expressing Enterobacteriaceae (n = 33); assay: as above; format: cell-based
# [3] = tested on: ceftibuten-resistant Enterobacteriaceae expressing ESBL (n=20); assay: Checkerboard broth microdilution MIC, BLI concentration impact; format: cell-based; conditions: for MIC50: read-out: CTB MIC50; for MIC90: read-out: CTB MIC90
# Method: (§1) Minimum inhibitory concentrations (MICs) were determined by broth microdilution method following CLSI guidelines. Tested strains were ceftibuten-resistant Enterobacteriaceae expressing ESBL (n=20), KPC (n=20), OXA-48 (n=20) and/or Class C (n=20) beta-lactamases. For each isolate, one microtiter plate was prepared and formatted as a checkerboard with the BLI (Compound 2 or clavulanic acid) titrated down the plate and ceftibuten titrated across the plate. Each agent was also tested alone. MICs were determined as the well with the lowest concentration of ceftibuten without visible growth at each concentration of BLI.
# [4] = tested on: ceftibuten-resistant Enterobacteriaceae, All isolates; assay: as above; format: cell-based; conditions: for MIC50: read-out: CTB MIC50; for MIC90: read-out: CTB MIC90
# Method: as §1
# [5] = tested on: ceftibuten-resistant Enterobacteriaceae expressing Class C (n=20); assay: as above; format: cell-based; conditions: for MIC50: read-out: CTB MIC50; for MIC90: read-out: CTB MIC90
# Method: as §1
# [6] = tested on: ceftibuten-resistant Enterobacteriaceae expressing OXA-48 (n=20); assay: as above; format: cell-based; conditions: for MIC50: read-out: CTB MIC50; for MIC90: read-out: CTB MIC90
# Method: as §1
# NDM-1 = target: T1, NDM-1 (Klebsiella pneumoniae, UniProt C7C422); assay: Beta-lactamase enzyme inhibition (IC50); format: biochemical
# T1 construct: expressed as native untagged proteins; made in house; host or cells: E. coli BL21(DE3)
# VIM-2 = target: T2, VIM-2 (Escherichia coli, UniProt Q5U7L7); assay: Beta-lactamase enzyme inhibition (IC50); format: biochemical
# T2 construct: expressed as native untagged proteins; made in house; host or cells: E. coli BL21(DE3)
# Method: For VIM-2 metallo beta-lactamase, the procedure was identical with the following exceptions, first the protein was not pH adjusted to pH 5 with 50 mM sodium acetate, second, the chromatography step was changed to a 5 ml Q sepharose anion exchange column pre-equilibrated with 50 mM Hepes pH 7.5, and elution of the protein was achieved by a linear gradient of NaCl (0-600 mM). Finally, the VIM-2 purification required a second run (3rd step) on the Q sepharose anion exchange column to achieve acceptable purity (>90%).
# CMY-2 = target: T3, CMY-2 (Klebsiella pneumoniae, UniProt Q48434); assay: Beta-lactamase enzyme inhibition (IC50); format: biochemical
# T3 construct: expressed as native untagged proteins; made in house; host or cells: E. coli BL21(DE3)
# SHV-5 = target: T4, SHV-5 (Klebsiella pneumoniae, UniProt P0A3M1); format: biochemical
# T4 construct: expressed as native untagged proteins; made in house; host or cells: E. coli BL21(DE3)
# Method: (§2) Assays (200 μl final volume) were performed in PBS in triplicate using 96-well microtiter plates. Cephalothin was used as the substrate for p99 AmpC and CTX-M-15 (50 μM for p99 AmpC; 75 μM for CTX-M-15) and reactions were initiated by addition of enzyme (0.2 nM p99 AmpC; 3 nM CTX-M-15). The decrease in the absorbance at λ260 nm was recorded continuously on a BioTek Powerwave XS2 microplate reader. […] SHV-5 reactions were initiated with 40 nM enzyme, using cefotaxime (100 μM) as the substrate. […] For KPC-2, imipenem (75 μM) was used as the substrate, and reactions initiated with 3 nM enzyme. Reaction progress was monitored by measuring the reduction in absorbance at λ300 nm in continuous fashion. […] Time courses for reaction progress were fit to the following equation, using Prism 7.04 (GraphPad Software, LaJolla, USA) to obtain kobs:
# (§3) Off-rates for Compound 2 with the various beta-lactamases were determined by jump dilution experiments, performed in triplicate. Enzyme and inhibitor were incubated at room temperature for 10 minutes. Enzyme:inhibitor complexes were then diluted 800-fold into reaction buffer (50 mM Hepes, pH 7.0, 0.1 mg/ml BSA), and 20 μL of the diluted reaction immediately added to 180 μl of 110 μM nitrocefin in a 96-well microtiter plate, and the absorbance at λ 486 nm measured continuously on a BioTek Powerwave XS2 microplate reader. The resulting progress curves were fit to a single exponential, from which koff was derived. Half-life was determined using:
# (§4) To determine Ki, plots of the inhibitor concentration versus inverse the initial velocity were fit to a linear equation, and the observed Ki corrected for substrate concentration and affinity by: […]
# KPC-2 = target: T5, KPC-2 (Klebsiella pneumoniae, UniProt Q9F663); format: biochemical
# T5 construct: expressed as native untagged proteins; made in house; host or cells: E. coli BL21(DE3)
# Method: as §2, §3, §4
# [7] = tested on: four beta-lactamase expressing Enterobacteriaceae (1 KPC, 1 p99, 1 CTX-M-15, and 1 OXA-48); assay: Time-kill kinetic analyses; format: cell-based; conditions: Compound 2 fixed at 4 μg/mL, 24 hours
# Method: Activity was determined against four beta-lactamase expressing Enterobacteriaceae (1 KPC, 1 p99, 1 CTX-M-15, and 1 OXA-48). […] Macrodilution tubes were incubated with shaking and bacterial amounts were quantified at 0, 2, 4, 6, 8, and 24 hours by limiting dilutions. Amoxicillin/clavulanic acid (2:1) was used as a comparator oral antibacterial.
# [8] = Metabolic stability in liver S9; format: in vitro ADME, beagle dog; conditions: beagle, liver S9; Dog; test conc. 3 μM
# IMP-1 = target: T6, IMP-1 (Serratia marcescens, UniProt P52699); assay: Beta-lactamase enzyme inhibition (IC50); format: biochemical
# T6 construct: expressed as native untagged proteins; made in house; host or cells: E. coli BL21(DE3)
# p99 AmpC = target: T7, p99 AmpC (Enterobacter cloacae, UniProt P05364); format: biochemical
# T7 construct: expressed as native untagged proteins; made in house; host or cells: E. coli BL21(DE3)
# OXA-1 = target: T8, OXA-1 (Escherichia coli, UniProt P13661); assay: Beta-lactamase enzyme inhibition (IC50); format: biochemical
# T8 construct: expressed as native untagged proteins; made in house; host or cells: E. coli BL21(DE3)
# [9] = Single ascending dose pharmacokinetics, Solutol HS-15:Water (20:80); format: in vivo, Cynomolgus monkeys; conditions: cynomolgus monkey, plasma, iv, 1 mg/kg
# Method: (§5) This study included dose concentrations ranging from 2-120 mg/mL.
# [10] = as above; format: in vivo, Sprague-Dawley rats; conditions: male, Sprague-Dawley, rat, plasma, iv, 10 mg/kg
# Method: as §5
structure (smiles),measurement,setting,value
"Nc1nc(/C(=C/CC(=O)O)C(=O)N[C@@H]2C(=O)N3C(C(=O)O)=CCS[C@H]23)cs1 [Ceftibuten, ceftibuten, reference compound]",MIC50,[1],16 µg/mL
same,MIC90,[1],≥ 32 µg/mL
same,Number of strains at MIC value 0.5 mg/L,[2]; ESBL-expressing (n = 33),2
same,Number of strains at MIC value 1 mg/L,[2]; ESBL-expressing (n = 33),4
same,Number of strains at MIC value 2 mg/L,[2]; ESBL-expressing (n = 33),2
same,Number of strains at MIC value 4 mg/L,[2]; ESBL-expressing (n = 33),8
same,Number of strains at MIC value 8 mg/L,[2]; ESBL-expressing (n = 33),5
same,Number of strains at MIC value 16 mg/L,[2]; ESBL-expressing (n = 33),1
same,Number of strains at MIC value […],[2]; ESBL-expressing (n = 33),2 and 3
same,Number of strains at MIC value ≤0.06 mg/L,[2]; ESBL-expressing (n = 33),0
same,Number of strains at MIC value ≥32 mg/L,[2]; ESBL-expressing (n = 33),6
same,MIC50,[2]; iv,4 µg/mL
same,MIC90,[2]; iv,≥ 32 µg/mL
"O=C(O)[C@H]1/C(=C/CO)O[C@@H]2CC(=O)N21 [Clavulanic acid, clavulanic acid, reference compound]",MIC50,[3],0.5 µg/mL
same,MIC90,[3],2 µg/mL
same,MIC50,[4],4 µg/mL
same,MIC90,[4],32 µg/mL
same,MIC50,[5],2 µg/mL
same,MIC90,[5],> 32 µg/mL
same,MIC50,[6],8 µg/mL
same,MIC90,[6],> 32 µg/mL
"CCC(=O)N[C@H]1Cc2cccc(C(=O)O)c2OB1O [Compound 2, (R)-2-hydroxy-3-propionamido-3,4-dihydro-2H-benzo[e][1,2]oxaborinine-8-carboxylic acid]",IC50,NDM-1,38100 nM
same,IC50,VIM-2,9040 nM
same,IC50,CMY-2,14 nM
same,Ki,SHV-5,41 nM
same,k−2,SHV-5,12.7 ± 0.07 10^−4 s^−1
same,t1/2,SHV-5,6.5 ± 0.04 min
same,Ki,KPC-2,110 nM
same,k−2,KPC-2,2.5 ± 0.1 10^−4 s^−1
same,t1/2,KPC-2,46 ± 2.0 min
same,rescue of ceftibuten to cidality in time-kill,[7],able to rescue ceftibuten to a cidal endpoint through 24 hours
same,half-life at 3 μM,[8],> 120 min
same,IC50,IMP-1,> 100000 nM
same,k−2,p99 AmpC,24 ± 0.5 10^−4 s^−1
same,t1/2,p99 AmpC,5.0 ± 0.1 min
same,IC50,OXA-1,66 nM
same,MIC50,[3],0.25 µg/mL
same,MIC90,[3],0.5 µg/mL
same,MIC50,[4],0.25 µg/mL
same,MIC90,[4],1 µg/mL
same,MIC50,[5],0.25 µg/mL
same,MIC90,[5],1 µg/mL
same,MIC50,[6],0.125 µg/mL
same,MIC90,[6],0.5 µg/mL
same,AUC(0-inf),[9],10000 ng·h/mL
same,Cmax,[9],26000 ng/mL
same,AUC(0-inf),[10],6700 ng·h/mL
same,Cmax,[10],23700 ng/mL
